From paper PMC2848298 (Bioorganic & medicinal chemistry letters, 2010)
Where two headings read alike, the source gives them in different places.

Legend:
ABCG2 [1] = molecular target: T1, ABCG2 (Homo sapiens, UniProt Q9UNQ0); experiment: Cellular accumulation of the ABCG2 substrate pheophorbide-a; conditions: PhA accumulation assay
T1 sequence (Q9UNQ0 1-655): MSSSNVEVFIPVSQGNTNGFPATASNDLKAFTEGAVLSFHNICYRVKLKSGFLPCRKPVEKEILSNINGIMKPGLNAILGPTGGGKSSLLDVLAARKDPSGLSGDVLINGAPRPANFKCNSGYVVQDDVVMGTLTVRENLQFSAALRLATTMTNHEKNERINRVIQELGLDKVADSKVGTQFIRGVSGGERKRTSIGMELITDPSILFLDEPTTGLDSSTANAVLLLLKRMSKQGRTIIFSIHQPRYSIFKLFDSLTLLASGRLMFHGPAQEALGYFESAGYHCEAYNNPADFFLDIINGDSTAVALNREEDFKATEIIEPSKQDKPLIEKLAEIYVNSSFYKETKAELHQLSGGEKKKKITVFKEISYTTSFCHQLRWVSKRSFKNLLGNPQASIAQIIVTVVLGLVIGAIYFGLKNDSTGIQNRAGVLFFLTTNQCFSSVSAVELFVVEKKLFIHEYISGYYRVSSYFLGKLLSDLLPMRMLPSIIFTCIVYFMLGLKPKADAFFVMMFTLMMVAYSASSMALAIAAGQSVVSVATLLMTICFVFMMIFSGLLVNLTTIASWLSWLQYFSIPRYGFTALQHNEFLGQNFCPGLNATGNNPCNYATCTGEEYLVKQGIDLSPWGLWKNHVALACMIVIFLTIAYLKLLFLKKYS

ABCG2 [2] = molecular target: T1, ABCG2
P-glycoprotein (P-gp) = conditions: cited from earlier work

ABCG2 inhibitory activity (in words) (ABCG2 [1]) | Molecule | other results
retained inhibitory activity | CO/C(=C\c1ccc(O)c(O)c1)C(=O)N/C=C/c1ccc(O)cc1 [compound 21] | 
observed inhibitory activity | CO/C(=C\c1cc(Br)c(O)c(Br)c1)C(=O)N/C=C/c1ccc(OC(C)=O)cc1 [compound 23] | 
inactive | CO/C(=C\c1ccc(O)cc1)C(=O)NCC(O)c1ccc(O)cc1 (centres unmarked) [compound 9] | 
observed inhibitory activity | CO/C(=C\c1cc(Br)c(O)c(Br)c1)C(=O)N/C=C/c1ccc(O)cc1 [compound 22] | 

More lines, now with the values behind:

Molecule | ABCG2 inhibitory activity (in words) (ABCG2 [1]) | other results
O=C(/C=C/c1ccc(O)cc1)N/C=C/c1ccc(O)cc1 [compound 18] |  | ABCG2 inhibitory activity (in words) (ABCG2 [1]; at 100 μM): inactive
2-methoxy-p-coumaric acid [compound 8] |  | ABCG2 inhibitory activity (in words) (ABCG2 [2]): inactive
CO/C(=C\c1ccc(O)cc1)C(=O)N/C=C/c1cc(Br)c(O)c(Br)c1 [botryllamide G] |  | Inhibition of efflux of rhodamine out of P-gp-overexpressing cells (P-glycoprotein (P-gp); at 50 μM): not the efflux of rhodamine
CO/C(=C\c1ccc(O)cc1)C(=O)N/C=C/c1cc(Br)c(OC)c(Br)c1 [botryllamide A, reference compound] |  | Inhibition of export of rhodamine by P-gp (P-glycoprotein (P-gp)): inhibited the export of rhodamine
